Where “and” joins values, the source holds several entries; their conditions need not be identical. Identical values can stand only once. Like-named read-outs stand apart in the source and are kept apart here.
Key:
[1] = cited from earlier work
[2] = 5 mg/L hydrogen peroxide, UV fluence of 50 mJ/cm^2; cited from earlier work
[3] = cited from earlier work; remark: listed apart in the source
[4] = Direct UV photolytic degradation of single contaminants in deionized water (collimated beam MP Hg lamp, HPLC/MS/MS); assay type: physicochemical; conditions: for UV dose for 90% degradation: polychromatic UV 200-400 nm; for pH dependence of rate constant (k) for photolytic degradation: FIG. 21 and FIG. 23, in words; for Optimal pH for photodegradation: UV direct photolysis
Method: Solutions of tested contaminants were prepared by dissolving one or more contaminant in 150 ml deionized water (DI) at a concentration of 1 mg/l for each contaminant. The solution was then placed into an open 90×50 mm crystallization dish. […] No. 7830-61, from Ace Glass Inc.) housed in a bench scale collimated beam apparatus. […] 0.5 ml samples were removed from the irradiated solution at selected time intervals in order to measure the concentration of the remaining contaminant. Samples were measured in a 1100-Finnigan LCQ HPLC/MS/MS (high performance liquid chromatography/tandem mass spectrometry) apparatus (Agilent), in order to obtain a chromatogram for the sample. The concentration was expressed as the area of the peak observed in the HPLC/MS/MS chromatogram. The degradation kinetics were expressed as a logarithm of the ratio of the concentration (CH) remaining following a dose H of irradiation to initial concentration (C0). Such a logarithm decreased in a linear manner as a function of the dose, as follows: […] The data were fitted using a linear regression approach (with R^2>0.9) resulting in pseudo-first order reaction kinetics which reflect the difference in photodegradation between samples.

[5] = cited from earlier work; remark: listed apart in the source
[6] = UV fluence of 1000 mJ/cm^2, pH 7.5, 254 nm; cited from earlier work
[7] = Direct UV photolytic degradation of SMX in synthetic effluent water; assay type: physicochemical
Method: Solutions of tested contaminants were prepared by dissolving one or more contaminant in 150 ml deionized water (DI) at a concentration of 1 mg/l for each contaminant. The solution was then placed into an open 90×50 mm crystallization dish.
The aqueous solution was stirred continuously for the duration of the experiment, and irradiated using a 0.45 kW polychromatic medium-pressure (MP) Hg vapor lamp (Ace-Hanovia Lamp Cat. No. 7830-61, from Ace Glass Inc.) housed in a bench scale collimated beam apparatus. The polychromatic irradiation was at ultraviolet (UV) wavelengths in a range of 200-400 nm.
0.5 ml samples were removed from the irradiated solution at selected time intervals in order to measure the concentration of the remaining contaminant. Samples were measured in a 1100-Finnigan LCQ HPLC/MS/MS (high performance liquid chromatography/tandem mass spectrometry) apparatus (Agilent), in order to obtain a chromatogram for the sample. The concentration was expressed as the area of the peak observed in the HPLC/MS/MS chromatogram.
The data were fitted using a linear regression approach (with R^2>0.9) resulting in pseudo-first order reaction kinetics which reflect the difference in photodegradation between samples. The constant k (cm^2/mJ), the degradation rate fluence-based constant, was calculated as the negative slope obtained when the degradation was plotted logarithmically as described hereinabove.
The UV dose required for 90% degradation of the tested contaminants was calculated using the obtained value for k, by inserting the appropriate numbers into the above equation: […]
Synthetic wastewater was prepared as described in Seo et al. and diluted with deionized water to obtain a 70% transmittance at 254 nm, which is typical for wastewater effluents treated by UV irradiation.

[8] = least favorable tested pH vs optimal pH, deionized water

| Structure (SMILES) | Relevant pKa [3] | pH dependence of photolytic degradation ([4]; deionized water, in words) | Reduction in UV dose [4, 8] | UV dose for 90% degradation ([4]; pH 6, deionized water, 1 mg/l) [mJ/cm^2] | UV dose for 90% degradation ([4]; pH 7, deionized water, 1 mg/l) [mJ/cm^2] | pH dependence of rate constant (k) for photolytic degradation ([4]; deionized water) | UV dose for 90% degradation ([4]; pH 5, deionized water, 1 mg/l) [mJ/cm^2] | other results |
| --- | --- | --- | --- | --- | --- | --- | --- | --- |
| Oc1nc(Cl)c(Cl)cc1Cl [TCP, 3,5,6-trichloro-2-pyridinol] | – | – | – | – | – | – | – | Degradation of TCP via direct photolytic process ([1]; UV fluence of 50 mJ/cm^2): approximately 40%; Photodegradation rate, constant maximum value ([1]; pH 5): 6.40×10^−3 cm^2 mJ^−1; Degradation of TCP via indirect photolytic process [2]: 50% |
| NC(=O)N1c2ccccc2C=Cc2ccccc21 [CPZ, Carbamazepine] | 13 | more rapid at a pH of 8 than at a pH of 6 | 66.6% | 23000 | 11500 | – | – | UV dose for 90% degradation ([4]; pH 8, deionized water, 1 mg/l): 7667 mJ/cm2 |
| CC(COc1ccc(Oc2ccccc2)cc1)Oc1ccccn1 (stereo not shown) [PRX, pyriproxyfen] | – | – | – | – | – | – | – | pH dependence of photolytic degradation ([4]; 1 mg/l): more rapid at a pH of 5 than at a pH of 3; UV dose for 90% removal ([4]; pH 3, deionized water): 2555.6 mJ/cm^2; UV dose for 90% removal ([4]; pH 4, deionized water): 1352.9 mJ/cm^2; UV dose for 90% removal ([4]; pH 5, deionized water): 1277.8 mJ/cm^2; Reduction in UV dose ([4]; tested pH 3-5, deionized water): 50% |
| O=C(O)c1cn(C2CC2)c2cc(N3CCNCC3)c(F)cc2c1=O [CPR, Ciprofloxacin] | – | more rapid at a pH of 7 than at a pH of 5 | 80.7% | 742 | 403 | higher at a pH of 7 than at a pH of 5 | 2091 | Degradation in mixture (30 min, pH 5): 26%; Degradation in mixture (60 min): 96%; Degradation in mixture without change of pH, by extrapolation (60 min, pH 5): 53% |
| Cc1ncc([N+](=O)[O-])n1CCO [metronidazole] | 2.4 | – | – | – | – | – | – | Dependency of direct UV photolysis on solution pH ([5]; pH 3-9.5): no significant dependency; Removal efficiency of direct photolysis ([5]; pH 6): low removal efficiency |
| CN(C)[C@@H]1C(O)=C(C(N)=O)C(=O)[C@@]2(O)C(O)=C3C(=O)c4c(O)cccc4[C@@](C)(O)[C@H]3C[C@@H]12 [TC, Tetracycline] | – | more rapid at a pH of 7 than at a pH of 5 | – | 2300 | 1200 | higher at a relatively high pH (pH 7 or 8) | 8000 | – |
| CC1(C)S[C@@H]2[C@H](NC(=O)[C@H](N)c3ccc(O)cc3)C(=O)N2[C@H]1C(=O)O [AMX, Amoxicillin] | 6.9 | more rapid at a pH of 7 or 8 than at a pH of 6 | 36.4% | 3285 | 2090 | higher at a relatively high pH (pH 7 or 8) | – | UV dose for 90% degradation ([4]; pH 8, deionized water, 1 mg/l): 2090 mJ/cm2 |
| CCN1CCN(c2cc3c(cc2F)c(=O)c(C(=O)O)cn3C2CC2)CC1 [ENR, enrofloxacin] | 5.94 | more rapid at a pH of 7 than at a pH of 5 | 68.2% | 2300 | 1045 | – | 3286 | – |
| CCn1cc(C(=O)O)c(=O)c2cc(F)c(N3CCNCC3)cc21 [NOR, norfloxacin] | 8.4 | more rapid at a pH of 7 than at a pH of 5 | 84.7% | 2091 | 697 | higher at a relatively high pH (pH 7 or 8) | 4600 | – |
| CCc1cccc(C)c1N(C(=O)CCl)C(C)COC (stereo not shown) [metolachlor] | – | – | – | – | – | – | – | Fraction degraded [6]: Approximately half |
| COc1cc(NS(=O)(=O)c2ccc(N)cc2)nc(OC)n1 [SMT, sulfadimethoxine] | 6.08 | more rapid at a pH of 5 than at a pH of 7 | 58.3% | 3300 | 5750 | higher at a relatively low pH (pH 5) | 2400 | Optimal pH for photodegradation [4]: 5 |
| COc1cc(Cc2cnc(N)nc2N)cc(OC)c1OC [TMP, Trimethoprim] | – | more rapid at a pH of 8 than at a pH of 6 | 95% and 95.4% | 23000 | 3833 | higher at a relatively high pH (pH 7 or 8) | – | Enhancement of photolysis rate ([4]; changing the pH value from 6 to 8, deionized water): more than 12 fold; UV dose for 90% degradation ([4]; pH 8, deionized water, 1 mg/l): 1770 mJ/cm2 |
| CN(C)[C@@H]1C(O)=C(C(N)=O)C(=O)[C@@]2(O)C(O)=C3C(=O)c4c(O)cccc4[C@@](C)(O)[C@H]3[C@H](O)[C@@H]12 [OTC, oxytetracycline] | – | more rapid at a pH of 7 than at a pH of 5 | – | 2556 | 1643 | higher at a pH of 7 than at a pH of 5 | 5750 | Degradation in mixture (30 min, pH 5): 54%; Degradation in mixture (60 min): 91%; Degradation in mixture without change of pH, by extrapolation (60 min, pH 5): 81% |
| Cc1cc(NS(=O)(=O)c2ccc(N)cc2)no1 [SMX, sulfamethoxazole] | – | more rapid at a pH of 5 than at a pH of 7 | 73.4% | 590 | – | higher at a pH of 5 than at a pH of 7 | – | UV dose for 90% degradation ([7]; pH 7, synthetic effluent water): 1643 mJ/cm^2; Reduction in UV dose ([7]; pH 7 vs pH 5, synthetic effluent water): 80.8%; pH dependence of photolytic degradation ([7]; synthetic effluent water, in words): more rapid at a pH of 5 than at a pH of 7; Optimal pH for photodegradation [4]: 5; Irradiation time for 90% degradation ([4]; pH 5, deionized water): approximately 4 minutes; Irradiation time for 90% degradation ([4]; pH 7, deionized water): approximately 12 minutes; Degradation in mixture (30 min, pH 5): 98.4% |
| CC1(C)S[C@@H]2[C@H](NC(=O)[C@H](N)c3ccccc3)C(=O)N2[C@H]1C(=O)O [AMP, ampicillin] | – | more rapid at a pH of 8 than at a pH of 7 or 6 | 33.4% | 2875 | 2875 | – | – | UV dose for 90% degradation ([4]; pH 8, deionized water, 1 mg/l): 1916 mJ/cm2 |

Reference: patent US20110163045A1, “METHOD AND SYSTEM FOR TREATING CONTAMINATED WATER” (Ramot at Tel-Aviv University Ltd., priority 2008, published 2011)
